Patent US20230390243A1, “Compositions and Uses Thereof” (Purposeful IKE, priority 2020, published 2023)
Values joined by “and” are separate entries in the source; they are usually repeats but may differ in a detail not shown here. Equal entries are not always repeated. Where two headings read alike, the source gives them in different places.

Legend:
Fmr1 KO mice [1] = test: Open field test (hyperactivity); format: in vivo; set-up: unit not given here; conditions: for Mean 2 (group mean), Open Field: KO group mean, n 10
Description: (§1) Fmr1 KO mice backcrossed to the FVB strain and WT littermates were used during experiments. TransnetXY Automated Genotyping (www.transnetyx.com/). TRANSNETYX, INC., 8110 Cordova Rd. Suite 119, Cordova, TN 38016, USA was used for genotyping. The animals were pretreated for 14 days. The active ingredients of Sumatriptan and Ergoloid were in a water carrier, whereas oxitriptan was in a methanol carrier.
(§2) The mice were housed in plastic cages (35×30×12 cm), 5 in each. The room temperature (21±2° C.),relative humidity (55±5%), a 12-h light-dark cycle (lights on 7 a.m.-7 p.m.) and air exchange (16 times per h) were automatically controlled. The animals had free access to commercial food pellets and water. Testing was conducted during the light phase. Ten mice per treatment group were used for the AGS experiments. Experiments were conducted in line with the requirements of the UK Animals (Scientific Procedures) Act, 1986.
(§3) All experiments were conducted with the experimenter blind to genotype and drug treatment. Separate investigators prepared and coded dosing solutions, allocated the mice to the study treatment groups, dosed the animals, and collected the Audiogenic Seizure data.
(§4) Behavior testing was conducted at 2 weeks. The behavioral tests were as follows: 1. Hyperactivity: Open field; 2. Stereotypy: Self-grooming; 3. Sociability: Three chamber partition test; 4. Memory and Learning: Novel Object Recognition; 5. Anxiety: hyponeophagia; and 6. Test of daily living: marble burying
For hyperactivity, the open field test (OFT) is a common measure of exploratory behavior and general activity in both mice and rats, where both the quality and quantity of the activity can be measured. Principally, the open field (OF) is an enclosure, generally square, rectangular, or circular in shape with surrounding walls that prevent escape. The OFT is also commonly used as a mechanism to assess the sedative, toxic, or stimulant effects of compounds (Gould 2009).
(§5) The treatment of the mice with OX (Oxitriptan), SU (Sumatriptan), ER (Ergoloid mesylates) were according to the matrix shown below in Table 1.

Fmr1 KO mice [2] = test: Stereotypy: self-grooming; format: in vivo; set-up: unit not given here; conditions: for Mean Diff. (KO-V vs. group), Stereotypy: Dunnett's test against KO-V; for Mean Diff. (KO-V vs. group), Stereotypy / Data table Stereotypy (individual animals): Sumatriptan 20, Oxitriptan 40, Ergoloid 4 mg/kg, Ergoloid 2 + Oxitriptan 40 mg/kg; for Data table Stereotypy (individual animals): KO mice, one value per animal
Description: as §1, §2, §3, §4
For stereotypy, self-grooming was assessed. Self-grooming in animals is an innate behaviour that is involved in hygiene maintenance and other physiologically important processes, including thermoregulation, social communication and de-arousal. It is one of the most frequently observed behaviours in awake rodents and has a patterned, sequential organization with characteristic cephalocaudal progression (Kalueff 2016).
as §5

Fmr1 KO mice [3] = test: Sociability: three chamber partition test; format: in vivo; set-up: unit not given here; conditions: for Mean 2 (F_ group mean), Sociability / Mean Diff. (F_KO-V vs. F_ group), Sociability: F_ values; for Mean 2 (F_ group mean), Sociability / Mean 2 (N_ group mean), Sociability / Mean 2 (group mean), Sociability: KO group mean; for Mean 2 (F_ group mean), Sociability / Mean 2 (N_ group mean), Sociability: table against F_KO-V; for Mean 2 (F_ group mean), Sociability: doses as E34; for Mean Diff. (F_KO-V vs. F_ group), Sociability: Ergoloid 2 + Oxitriptan 40 mg/kg; for Mean 2 (N_ group mean), Sociability: doses as E37; for Mean 2 (group mean), Sociability: table against N_WT-V (mean 99.10), doses as E13; for Mean Diff. (N_WT-V vs. group), Sociability: Dunnett's test against N_WT-V, Ergoloid 2 + Sumatriptan 10, Ergoloid 2 + Oxitriptan 40 mg/kg
Description: as §1, §2, §3, §4
For sociability a three chamber partition test was utilized. The three-chamber paradigm test known as Crawley's sociability and preference for social novelty protocol has previously been successfully employed to study social affiliation and social memory in several inbred and mutant mouse lines. The main principle of the test was based on the free choice by a subject mouse to spend time in any of three box's compartments during two experimental sessions, including indirect contact with one or two mice with which it was unfamiliar (Kaidanovich-Beilin 2011).
as §5

Fmr1 KO mice [4] = test: Memory and learning: Novel Object Recognition (NOR); format: in vivo; set-up: unit not given here; conditions: for Mean 2 (group mean), NOR: table against N_WT-V (mean 13.90), doses as E10; for Mean Diff. (N_WT-V vs. group), NOR: Dunnett's test against N_WT-V, Ergoloid 2 + Sumatriptan 10, Ergoloid 2 + Oxitriptan 40 mg/kg
Description: as §1, §2, §3, §4
For memory and learning, a novel object recognition (NOR) task was used to evaluate the rodents' ability to recognize a novel object in the environment. […] The task procedure consists of three phases: habituation, familiarization, and test phase (Antunes 2012).
as §5

Fmr1 KO mice [5] = test: Anxiety: hyponeophagia test; format: in vivo; set-up: unit not given here; conditions: for Mean Diff. (KO-V vs. group), Hyponeophagia: Dunnett's test against KO-V, Ergoloid 2 + Oxitriptan 40 mg/kg; for Mean 2 (group mean), Hyponeophagia: KO group mean, n 10
Description: as §1, §2, §3, §4
For anxiety a hyponeophagia test was conducted. Mice and rats cannot vomit, due to the tightness of the cardiac sphincter of the stomach, so to overcome the problem of potential food toxicity they have evolved a strategy of first ingesting only very small amounts of novel substances. The amounts ingested then gradually increase until the animal has determined whether the substance is safe and nutritious. So the old rat-catchers would first put a palatable substance such as oatmeal, which was to be the vehicle for the toxin, in the infested area (Deacon 2011).
as §5

Fmr1 KO mice [6] = test: Test of daily living (marble burying / nesting); format: in vivo; set-up: scale not given here; conditions: for Mean Diff. (KO-V vs. group), Test of daily living: Dunnett's test against KO-V, Ergoloid 2 + Oxitriptan 40 mg/kg; for Mean Diff. (KO-V vs. group), Test of daily living / Mean Diff. (WT-V vs. group), Test of daily living: Sumatriptan 20, Oxitriptan 40, Ergoloid 4 mg/kg; for Mean Diff. (WT-V vs. group), Test of daily living: Dunnett's test against WT-V, Column F Ergoloid 2 + Sumatriptan 10, Column G Ergoloid 2 + Oxitriptan 40 mg/kg; for Mean 2 (group mean), Test of daily living: KO group mean, n 10
Description: as §1, §2, §3, §4
For test of daily living, nesting was assessed as nest building is an innate behavior in rodents, even when raised in laboratory settings. Synthetic and/or natural materials (such as twine, tissue, cotton, paper, and hay) are provided as a gauge of their overall well-being and as an ancillary assessment to predict the possible decline in cognition. Typically, changes in nesting behaviors, such as failure to create a nest, indicate a change in health or welfare. In addition, nesting behavior is sensitive to many environmental and physiological challenges, as well as many genetic mutations underlying pathological disease states (Gaskill 2013).
as §5

FMR1 mice = test: Behavioral experiments, FXS phenotypes overall; format: in vivo; conditions: summary statement
Description: as §1, §4, §5

[7] = cited from earlier work
[8] = tested on: patients with autism or Asperger's disorder; conditions: versus placebo; cited from earlier work
[9] = table against KO-V (mean 8263), doses as E16
[10] = table against WT-V (mean 4207), doses as E1
[11] = Dunnett's test against F_KO-V, Sumatriptan 20, Oxitriptan 40, Ergoloid 4 mg/kg
[12] = Fmr1 KO mice, Oxitriptan 40 mg/kg, F column, individual animals
[13] = Fmr1 KO mice, Oxitriptan 40 mg/kg, individual animals
[14] = N_ values, Sumatriptan 20, Oxitriptan 40, Ergoloid 4 mg/kg
[15] = Sumatriptan 20, Oxitriptan 40, Ergoloid 4 mg/kg
[16] = table against KO-V (mean 237.3), doses as E22
[17] = table against WT-V (mean 145.5), doses as E4
[18] = table against KO-V (mean 1.200), doses as E25
[19] = table against WT-V (mean 4.800), doses as E7
[20] = Fmr1 KO mice, Sumatriptan 20 mg/kg, F column, individual animals
[21] = Fmr1 KO mice, Sumatriptan 20 mg/kg, individual animals
[22] = N_ values, Dunnett's test against F_KO-V, Sumatriptan 20, Oxitriptan 40, Ergoloid 4 mg/kg, Column N Ergoloid 2 + Oxitriptan 40 mg/kg

Row | SMILES | Mean 2 (group mean), Open Field (Fmr1 KO mice [1]; [9]) | Mean 2 (group mean), Open Field (Fmr1 KO mice [1]; [10]) | Mean Diff. (KO-V vs. group), Stereotypy (Fmr1 KO mice [2]) | Data table Stereotypy (individual animals) (Fmr1 KO mice [2]) | Mean 2 (F_ group mean), Sociability (Fmr1 KO mice [3]) | Mean Diff. (F_KO-V vs. F_ group), Sociability (Fmr1 KO mice [3]; [11]) | Mean 2 (N_ group mean), Sociability (Fmr1 KO mice [3]; N_ values) | Mean 2 (group mean), Sociability (Fmr1 KO mice [3]; N_ values) | Mean Diff. (N_WT-V vs. group), Sociability (Fmr1 KO mice [3]; [14]) | Mean 2 (group mean), NOR (Fmr1 KO mice [4]; N_ values, KO group mean) | Mean Diff. (N_WT-V vs. group), NOR (Fmr1 KO mice [4]; [14]) | Mean Diff. (KO-V vs. group), Hyponeophagia (Fmr1 KO mice [5]; [15]) | Mean 2 (group mean), Hyponeophagia (Fmr1 KO mice [5]; [16]) | Mean 2 (group mean), Hyponeophagia (Fmr1 KO mice [5]; [17]) | Mean Diff. (KO-V vs. group), Test of daily living (Fmr1 KO mice [6]) | Mean Diff. (WT-V vs. group), Test of daily living (Fmr1 KO mice [6]) | Mean 2 (group mean), Test of daily living (Fmr1 KO mice [6]; [18]) | Mean 2 (group mean), Test of daily living (Fmr1 KO mice [6]; [19]) | also measured
1 | N[C@@H](Cc1c[nH]c2ccc(O)cc12)C(=O)O [Oxitriptan] | 4720 | 4720 | 10.10 | 34 and 37 (2×) and 40 and 36 and 38 (2×) and 33 and 31 and 29 | 52.10 | 29.50 | 98.80 | 96.80 | 0.3000 | 10.82 | 3.082 | 91.10 | 146.2 | 146.2 | −3.700 | −0.1000 | 4.800 | 4.900 | Mean Diff. (KO-V vs. group), Open Field (Fmr1 KO mice [1]; Dunnett's test against KO-V, Sumatriptan 20, Oxitriptan 80, Ergoloid 4 mg/kg, Ergoloid 2 + Oxitriptan 40 mg/kg): 3543; Mean 2 (group mean), Stereotypy (Fmr1 KO mice [2]; KO group mean, n 10, table against KO-V (mean 45.40), doses as E19): 35.30; Sociability, F_KO-Oxitriptan (Fmr1 KO mice [3]; [12]): 54 and 52 (2×) and 50 (2×) and 53 (2×) and 51 and 55; Sociability, N_KO-Oxitriptan (Fmr1 KO mice [3]; [13]): 104 and 98 (2×) and 97 (2×) and 100 (2×) and 99 (2×) and 96; Novel Object Recognition, F_KO-Oxitriptan (Fmr1 KO mice [4]; [12]): 6 (4×) and 5 (3×) and 9 (2×) and 8 (2×); Novel Object Recognition, N_KO-Oxitriptan (Fmr1 KO mice [4]; [13]): 10 (4×) and 12 and 14 and 8 (2×) and 15 and 13 and 9; Mean 2 (N_ group mean), NOR (Fmr1 KO mice [4]; N_ values, KO group mean, table against F_KO-V, doses as E31): 10.82; Mean Diff. (WT-V vs. group), Hyponeophagia (Fmr1 KO mice [5]; Dunnett's test against WT-V, Sumatriptan 20, Oxitriptan 40, Ergoloid 4 mg/kg, Column F Ergoloid 2 + Sumatriptan 10, Column G Ergoloid 2 + Oxitriptan 40 mg/kg): −0.7000; Hyponeophagia, KO-Oxitriptan (Fmr1 KO mice [5]; [13]): 151 and 145 and 150 and 140 (2×) and 147 and 143 and 152 and 148 and 146; Tests of daily living, KO-Oxitriptan (Fmr1 KO mice [6]; [13]): 5 (9×) and 4
2 | CNS(=O)(=O)Cc1ccc2[nH]cc(CCN(C)C)c2c1 [Sumatriptan, 1-[3-[2-(dimethylamino)ethyl]-1H-indol-5-yl]-N-methylmethanesulfonamide] | 7416 | 7416 | 14.60 | 29 and 35 and 31 (2×) and 30 (3×) and 32 and 28 and 33 | 62.20 | 19.40 | 98.20 | 98.20 | 0.9000 | 7.300 | 6.600 | 82.60 | 154.7 | 154.7 | −3.500 | 0.1000 | 4.700 | 4.700 | Mean Diff. (WT-V vs. group), Open Field (Fmr1 KO mice [1]; Dunnett's test against WT-V, Sumatriptan 20 mg/kg, 5-HTP 80 mg/kg, EM 4 mg/kg, Column F Ergoloid 2 + Sumatriptan 10 mg/kg, Ergoloid 2 + Oxitriptan 40 mg/kg): −3209; Sociability, F_KO-Sumatriptan (Fmr1 KO mice [3]; [20]): 61 (2×) and 64 and 65 (2×) and 60 (3×) and 63 (2×); Sociability, N_KO-Sumatriptan (Fmr1 KO mice [3]; [21]): 99 and 97 (2×) and 103 and 98 and 90 and 102 and 100 and 95 and 101; Mean Diff. (F_KO-V vs. N_ group), Sociability (Fmr1 KO mice [3]; [22]): −18.80; Mean Diff. (F_KO-V vs. F_ group), NOR (Fmr1 KO mice [4]; F_ values, Dunnett's test against F_KO-V, Sumatriptan 20, Oxitriptan 40, Ergoloid 4 mg/kg, Ergoloid 2 + Oxitriptan 40 mg/kg): −0.2000; Novel Object Recognition, F_KO-Sumatriptan (Fmr1 KO mice [4]; [20]): 9 (2×) and 5 (2×) and 8 (2×) and 7 (2×) and 4 and 6; Novel Object Recognition, N_KO-Sumatriptan (Fmr1 KO mice [4]; [21]): 6 (2×) and 8 (2×) and 9 (3×) and 5 and 7; Mean Diff. (F_KO-V vs. N_ group), NOR (Fmr1 KO mice [4]; [22]): −0.7000; Hyponeophagia, KO-Sumatriptan (Fmr1 KO mice [5]; [21]): 154 (2×) and 157 (2×) and 148 and 153 and 155 and 158 and 159 and 152; Tests of daily living, KO-Sumatriptan (Fmr1 KO mice [6]; [21]): 5 (7×) and 4 (3×); effect on FXS phenotypes (FMR1 mice): ameliorates the FXS phenotypes in FMR1 mice; half life ([7]; administered orally): 1.7 h; half life ([7]; administered subcutaneous): 1.9 h; GH response to sumatriptan [8]: significantly greater than to placebo
